According to ChEMBL document CHEMBL3880418, “Pyripyropene derivative having ACAT2 inhibiting activity and stable to metabolizing enzymes” (2013):

What was measured:
[1] = Half life in Sprague-Dawley rat liver microsomes at 6 ug/ml by HPLC method; type: ADME
[2] = biological target: T1, Sterol O-acyltransferase 2 (Mus musculus) (UniProt O88908); experiment: Ratio of compound IC50 to PRD 043 IC50 for ACAT2 in mouse hepatic microsomal membranes; type: cell membranes; details: Liver, Microsomal Membrane
T1 sequence (whole entry): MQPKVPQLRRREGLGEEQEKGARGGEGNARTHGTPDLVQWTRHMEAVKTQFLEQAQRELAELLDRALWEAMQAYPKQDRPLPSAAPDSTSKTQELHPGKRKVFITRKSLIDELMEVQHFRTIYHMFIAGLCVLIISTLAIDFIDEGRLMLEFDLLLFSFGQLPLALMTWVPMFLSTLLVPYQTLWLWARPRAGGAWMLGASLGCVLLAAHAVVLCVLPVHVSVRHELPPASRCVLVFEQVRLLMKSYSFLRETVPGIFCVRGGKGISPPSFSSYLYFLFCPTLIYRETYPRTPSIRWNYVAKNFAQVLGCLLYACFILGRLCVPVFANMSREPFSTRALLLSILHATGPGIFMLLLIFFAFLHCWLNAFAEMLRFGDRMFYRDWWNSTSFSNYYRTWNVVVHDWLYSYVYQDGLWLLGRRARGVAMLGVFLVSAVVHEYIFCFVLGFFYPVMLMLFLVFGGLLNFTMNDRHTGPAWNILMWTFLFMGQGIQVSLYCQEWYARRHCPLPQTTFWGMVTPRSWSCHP

| Structure (SMILES) | half-life at 6 ug/ml [1] [h] | Ratio IC50 [2] |
| --- | --- | --- |
| Cc1ccc([C@@H]2OC[C@@]3(C)[C@@H]4C[C@H](OC(=O)c5ccc(C#N)cc5)[C@@]5(C)Oc6cc(-c7cccnc7)oc(=O)c6[C@H](O)[C@@H]5[C@@]4(C)CC[C@@H]3O2)c(C)c1 | > 9 | < 20 |
| CC(=O)O[C@H]1C[C@H]2[C@]3(C)CO[C@@H](c4ccccc4)O[C@H]3CC[C@]2(C)[C@H]2[C@@H](O)c3c(cc(-c4cccnc4)oc3=O)O[C@]12C | > 9 | < 20 |
| Cc1ccc([C@@H]2OC[C@@]3(C)[C@@H]4C[C@H](OC(=O)c5ccc(F)cc5)[C@@]5(C)Oc6cc(-c7cccnc7)oc(=O)c6[C@H](O)[C@@H]5[C@@]4(C)CC[C@@H]3O2)c(C)c1 | > 9 | < 20 |
| CC(=O)OCC1(C)[C@@H](OC(C)=O)CC[C@]2(C)[C@H]3[C@@H](O)c4c(cc(-c5cccnc5)oc4=O)O[C@]3(C)[C@@H](OC(=O)C3CCCCC3)C[C@@H]12 (single isomer, unassigned) | < 1 | – |
| Cc1ccc([C@@H]2OC[C@@]3(C)[C@@H]4C[C@H](OC(=O)c5ccc(C#N)cc5)[C@@]5(C)Oc6cc(-c7cccnc7)oc(=O)c6[C@H](O)[C@@H]5[C@@]4(C)CC[C@@H]3O2)cc1 | > 9 | < 20 |
| C[C@@]12CO[C@@H](c3ccccc3)O[C@H]1CC[C@@]1(C)[C@H]2C[C@H](OC(=O)c2ccccc2)[C@@]2(C)Oc3cc(-c4cccnc4)oc(=O)c3[C@H](O)[C@H]12 | > 9 | < 20 |
| COc1ccccc1[C@@H]1OC[C@@]2(C)[C@@H]3C[C@H](OC(=O)c4ccc(F)cc4)[C@@]4(C)Oc5cc(-c6cccnc6)oc(=O)c5[C@H](O)[C@@H]4[C@@]3(C)CC[C@@H]2O1 | > 9 | < 20 |
| CN(C)c1ccc([C@@H]2OC[C@@]3(C)[C@@H]4C[C@H](OC(=O)c5ccc(C#N)cc5)[C@@]5(C)Oc6cc(-c7cccnc7)oc(=O)c6[C@H](O)[C@@H]5[C@@]4(C)CC[C@@H]3O2)cc1 | > 9 | < 20 |
| C[C@@]12CO[C@@H](c3ccccc3)O[C@H]1CC[C@@]1(C)[C@H]2C[C@H](OC(=O)C2CCCCC2)[C@@]2(C)Oc3cc(-c4cccnc4)oc(=O)c3[C@H](O)[C@H]12 | > 9 | < 20 |
| Cc1ccccc1[C@@H]1OC[C@@]2(C)[C@@H]3C[C@H](OC(=O)c4ccc(C#N)cc4)[C@@]4(C)Oc5cc(-c6cccnc6)oc(=O)c5[C@H](O)[C@@H]4[C@@]3(C)CC[C@@H]2O1 | > 9 | < 20 |
| Cc1cccc([C@@H]2OC[C@@]3(C)[C@@H]4C[C@H](OC(=O)c5ccc(F)cc5)[C@@]5(C)Oc6cc(-c7cccnc7)oc(=O)c6[C@H](O)[C@@H]5[C@@]4(C)CC[C@@H]3O2)c1 | > 9 | < 20 |
| C[C@@]12CO[C@@H](c3ccccc3F)O[C@H]1CC[C@@]1(C)[C@H]2C[C@H](OC(=O)c2ccc(C#N)cc2)[C@@]2(C)Oc3cc(-c4cccnc4)oc(=O)c3[C@H](O)[C@H]12 | > 9 | < 20 |
| Cc1cccc([C@@H]2OC[C@@]3(C)[C@@H]4C[C@H](OC(=O)c5ccc(C#N)cc5)[C@@]5(C)Oc6cc(-c7cccnc7)oc(=O)c6[C@H](O)[C@@H]5[C@@]4(C)CC[C@@H]3O2)c1 | – | < 20 |
| Cc1ccc([C@@H]2OC[C@@]3(C)[C@@H]4C[C@H](OC(=O)c5ccc(F)cc5)[C@@]5(C)Oc6cc(-c7cccnc7)oc(=O)c6[C@H](O)[C@@H]5[C@@]4(C)CC[C@@H]3O2)cc1 | > 9 | < 20 |
| COc1ccccc1[C@@H]1OC[C@@]2(C)[C@@H]3C[C@H](OC(=O)c4ccc(C#N)cc4)[C@@]4(C)Oc5cc(-c6cccnc6)oc(=O)c5[C@H](O)[C@@H]4[C@@]3(C)CC[C@@H]2O1 | > 9 | < 20 |
| C[C@@]12CO[C@@H](c3cccc4ccccc34)O[C@H]1CC[C@@]1(C)[C@H]2C[C@H](OC(=O)c2ccc(C#N)cc2)[C@@]2(C)Oc3cc(-c4cccnc4)oc(=O)c3[C@H](O)[C@H]12 | > 9 | < 20 |
| COc1ccc(C(OC)O[C@H]2C[C@H]3[C@]4(C)CO[C@@H](c5ccccc5)O[C@H]4CC[C@]3(C)[C@H]3[C@@H](O)c4c(cc(-c5cccnc5)oc4=O)O[C@]23C)cc1 (stereo not given in full) | > 9 | < 20 |
| Cc1cccc(C)c1[C@@H]1OC[C@@]2(C)[C@@H]3C[C@H](OC(=O)c4ccc(C#N)cc4)[C@@]4(C)Oc5cc(-c6cccnc6)oc(=O)c5[C@H](O)[C@@H]4[C@@]3(C)CC[C@@H]2O1 | > 9 | < 20 |

Other lines, results leading:

| half-life at 6 ug/ml [1] [h] | Ratio IC50 [2] | Structure (SMILES) |
| --- | --- | --- |
| > 9 | < 5 | COc1cccc(C(=O)O[C@H]2C[C@H]3C(C)(COC(C)=O)[C@@H](OC(C)=O)CC[C@]3(C)[C@H]3[C@@H](O)c4c(cc(-c5cccnc5)oc4=O)O[C@]23C)c1 (single isomer, unassigned) |
| > 9 | < 20 | CC(=O)OC[C@@]1(C)[C@@H]2C[C@H](OC(=O)c3ccc(C#N)cc3)[C@@]3(C)Oc4cc(-c5cccnc5)oc(=O)c4[C@H](O)[C@@H]3[C@@]2(C)CC[C@@H]1OC(=O)C(C)C |
| > 9 | < 20 | C[C@]1(COC(=O)c2ccccc2)[C@@H]2C[C@H](OC(=O)c3ccc(C#N)cc3)[C@@]3(C)Oc4cc(-c5cccnc5)oc(=O)c4[C@H](O)[C@@H]3[C@@]2(C)CC[C@@H]1OC(=O)c1ccccc1 |
| > 9 | < 20 | CC(=O)O[C@H]1CC[C@@]2(C)[C@@H](C[C@H](OC(C)=O)[C@@]3(C)Oc4cc(-c5cccnc5)oc(=O)c4[C@H](O)[C@H]23)[C@]1(C)COC(=O)c1ccccc1 |
| > 9 | < 1 | CC(C)C(=O)OCC1(C)[C@@H](OC(=O)C(C)C)CC[C@]2(C)[C@H]3[C@@H](O)c4c(cc(-c5cccnc5)oc4=O)O[C@]3(C)[C@@H](OC(=O)c3ccc(C#N)cc3)C[C@@H]12 (single isomer, unassigned) |
| > 9 | < 20 | CC(=O)O[C@H]1C[C@H]2[C@](C)(COC(=O)C(C)C)[C@@H](OC(=O)C(C)C)CC[C@]2(C)[C@H]2[C@@H](O)c3c(cc(-c4cccnc4)oc3=O)O[C@]12C |
| < 1 | – | CC(=O)OCC1(C)[C@@H](OC(C)=O)CC[C@]2(C)[C@H]3[C@@H](O)c4c(cc(-c5cccnc5)oc4=O)O[C@]3(C)[C@@H](OC(=O)c3ccccc3C)C[C@@H]12 (single isomer, unassigned) |
| < 1 | – | CC(=O)OCC1(C)[C@@H](OC(C)=O)CC[C@]2(C)[C@H]3[C@@H](O)c4c(cc(-c5cccnc5)oc4=O)O[C@]3(C)[C@@H](OC(=O)c3cccc(Br)c3)C[C@@H]12 (single isomer, unassigned) |
| < 1 | – | CC(=O)OCC1(C)[C@@H](OC(C)=O)CC[C@]2(C)[C@H]3[C@@H](O)c4c(cc(-c5cccnc5)oc4=O)O[C@]3(C)[C@@H](OC(=O)c3ccc(C)cc3)C[C@@H]12 (single isomer, unassigned) |
| < 1 | – | CCc1ccc(C(=O)O[C@H]2C[C@H]3C(C)(COC(C)=O)[C@@H](OC(C)=O)CC[C@]3(C)[C@H]3[C@@H](O)c4c(cc(-c5cccnc5)oc4=O)O[C@]23C)cc1 (single isomer, unassigned) |
| > 9 | < 20 | CCCCCC(=O)OC[C@@]1(C)[C@@H]2C[C@H](OC(=O)c3ccc(C#N)cc3)[C@@]3(C)Oc4cc(-c5cccnc5)oc(=O)c4[C@H](O)[C@@H]3[C@@]2(C)CC[C@@H]1OC(=O)CCCCC |
| > 9 | < 20 | CC(=O)OC[C@@]1(C)[C@@H]2C[C@H](OC(=O)c3ccc(C#N)cc3)[C@@]3(C)Oc4cc(-c5cccnc5)oc(=O)c4[C@H](O)[C@@H]3[C@@]2(C)CC[C@@H]1OC(=O)c1ccccc1 |
| > 9 | < 20 | CC(=O)O[C@H]1CC[C@@]2(C)[C@@H](C[C@H](OC(=O)c3ccc(C#N)cc3)[C@@]3(C)Oc4cc(-c5cccnc5)oc(=O)c4[C@H](O)[C@H]23)[C@]1(C)COC(=O)c1ccccc1 |
| > 9 | < 20 | COC(=O)[C@@]1(C)[C@@H](OC(C)=O)CC[C@]2(C)[C@H]3[C@@H](O)c4c(cc(-c5cccnc5)oc4=O)O[C@]3(C)[C@@H](OC(=O)c3ccc(C#N)cc3)C[C@H]21 |
| > 9 | < 20 | CC(=O)O[C@H]1CC[C@]2(C)[C@H]3[C@@H](O)c4c(cc(-c5cccnc5)oc4=O)O[C@]3(C)[C@@H](OC(=O)c3ccc(C#N)cc3)C[C@H]2[C@@]1(C)C(=O)O |
| > 9 | < 20 | CC(C)C(=O)OC[C@@]1(C)[C@@H]2C[C@H](OC(=O)C3CCCCC3)[C@@]3(C)Oc4cc(-c5cccnc5)oc(=O)c4[C@H](O)[C@@H]3[C@@]2(C)CC[C@@H]1OC(=O)C(C)C |
| < 1 | – | CC(=O)OCC1(C)[C@@H](OC(C)=O)CC[C@]2(C)[C@H]3[C@@H](O)c4c(cc(-c5cccnc5)oc4=O)O[C@]3(C)[C@@H](OC(=O)c3ccccc3F)C[C@@H]12 (single isomer, unassigned) |
| > 9 | < 20 | CC(C)C(=O)OC[C@@]1(C)[C@@H]2C[C@H](OC(=O)c3ccc([N+](=O)[O-])cc3)[C@@]3(C)Oc4cc(-c5cccnc5)oc(=O)c4[C@H](O)[C@@H]3[C@@]2(C)CC[C@@H]1OC(=O)C(C)C |
